The values below come from US20250092058A1 (priority 2018, published 2025).

The subject of one data set is T24. Nature of the data set: MTT assay T24. As to conditions: Table 5 lower part; T24 bladder cancer. The format is cell-based. As for the experimental part: (§1) MTT assays. […] Viable cells (2500 cells per well) were plated in each well in 96-well plates. After an overnight incubation, cells were treated with and without relevant drugs alone and in combination, respectively, at various concentrations and incubated for 72 hours. MTT, a colorimetric substrate, was added to a final concentration of 0.4 mg/ml to each well. Cells in 96-well plates were further incubated in a 5% CO2 incubator at 37° C. for 4 hours, and then the medium was aspirated. The MTT metabolic product formazan was solubilized by adding 200 ul of DMSO to each well. Absorbance in the relevant wells was measured at 570 nm using an Ultra Microplate Reader (Bio-Tek Instruments). Each experiment was performed at least in triplicate. IC50/EC50 values were calculated from a series of drug dose ranges for each analyzed compound, using GraphPad Prism 6 (GraphPad Software, Inc., La Jolla, CA).
(§2) The inhibition of cell growth and viability in various cancer cell types were tested using MTT assay for references.

A further data set concerns RT4. Nature of the data set: MTT assay RT4. The data set is classed as cell-based. As to conditions: Table 5 lower part; RT4 bladder cancer. The protocol:
as §1, §2

For another data set, the system named is H1376. The protocol: as §1, §2
In another data set the test system is UMUC-3. As for the experimental part: as §1, §2
The next data set has as its system FaDu. Put plainly: MTT assay FaDu. The data set is classed as cell-based. To be noted: Table 5 lower part; FaDu head-and-neck cancer. As for the experimental part: as §1, §2
(Formazan colour is commonly taken as a measure of viable cells.)

A further data set concerns A2008. Put plainly: MTT assay A2008. The format is cell-based. As to conditions: Table 5 lower part; A2008 ovarian cancer. As for the experimental part:
as §1, §2

Another data set concerns HT-3. Nature of the data set: MTT assay HT-3. The data set is classed as cell-based, human. As to conditions: HT-3. Summed up:
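Growth inhibition is measured by MTT reduction after 72 h treatment with single agents or combinations. Cells are plated at 2500 per well the day before dosing, and MTT (0.4 mg/ml final) is added for 4 h before DMSO solubilization and reading at 570 nm.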

Another data set concerns PDX14244 and PDX27454. Nature of the data set: Pancreatic PDX14244 (left flank) and colorectal PDX27454 (right flank) in the same SCID mice. As to conditions: oral weekly for 4 times. The format is in vivo. As for the experimental part: Human xenograft tumors used.
The vehicle is the same aqueous suspension without FL7N-1. Experimental SCID mice were subcutaneously implanted with 30-40 mg individual PDX tumors (isolated from maintenance mice) at the flank area (left side for PDX14244, and right side for PDX27454) of SCID mice. […] The animal model of PDX tumors was orally treated weekly for 3 times as shown with black arrows. […] Thus, FL7N-1 may be a priority candidate to be developed for treatment of children rare disease retinoblastoma.
The vehicle is the same think aqueous suspension without drug. Experimental SCID mice were subcutaneously implanted with 30-40 mg individual PDX tumors (isolated from maintenance mice) at the flank area (left side for PDX14244, and right side for PDX27454) of SCID mice. […] The animal model of PDX tumors was orally treated weekly for 3 times as shown with black arrows.
The vehicle is the same think aqueous suspension without drug. Experimental SCID mice were subcutaneously implanted with 30-40 mg individual PDX tumors (isolated from maintenance mice) at the flank area (left side for PDX14244, and right side for PDX27454) of SCID mice. […] The animal model of PDX tumors was orally treated weekly for 4 times (one cycle/course, as shown with black arrows).
The vehicle is the same think aqueous suspension without drug. Experimental SCID mice were subcutaneously implanted with 30-40 mg individual PDX tumors (isolated from maintenance mice) at the flank area (left side for PDX14244, and right side for PDX27454) of SCID mice. […] The animal model of PDX tumors was orally treated weekly for 3 times in two doses due to drug limitation then (as shown with black arrows).

The next data set relates to HCT116 cells. Nature of the data set: ROS production, DCFH-DA probe. The format is cell-based, human. As to conditions: 5-100 nM vs vehicle control. An excerpt:
Under the influence of pro-apoptotic signals, the elevation of reactive oxygen species (ROS) may serve as a secondary messenger to upregulate the expression of pro-apoptotic proteins, thereby inducing cellular apoptosis.

Another data set deals with HepG2. The data set is classed as cell-based, human.
Another data set relates to A549. The format is cell-based, human.
The test system of another data set is HeLa. The data set is classed as cell-based, human.
For data set [1], the system named is HCT116. The data set is classed as cell-based, human.
Another data set deals with Top1 (Homo sapiens, UniProt P11387). The format is biochemical.
Chain of Top1 (P11387 whole entry, species assumed): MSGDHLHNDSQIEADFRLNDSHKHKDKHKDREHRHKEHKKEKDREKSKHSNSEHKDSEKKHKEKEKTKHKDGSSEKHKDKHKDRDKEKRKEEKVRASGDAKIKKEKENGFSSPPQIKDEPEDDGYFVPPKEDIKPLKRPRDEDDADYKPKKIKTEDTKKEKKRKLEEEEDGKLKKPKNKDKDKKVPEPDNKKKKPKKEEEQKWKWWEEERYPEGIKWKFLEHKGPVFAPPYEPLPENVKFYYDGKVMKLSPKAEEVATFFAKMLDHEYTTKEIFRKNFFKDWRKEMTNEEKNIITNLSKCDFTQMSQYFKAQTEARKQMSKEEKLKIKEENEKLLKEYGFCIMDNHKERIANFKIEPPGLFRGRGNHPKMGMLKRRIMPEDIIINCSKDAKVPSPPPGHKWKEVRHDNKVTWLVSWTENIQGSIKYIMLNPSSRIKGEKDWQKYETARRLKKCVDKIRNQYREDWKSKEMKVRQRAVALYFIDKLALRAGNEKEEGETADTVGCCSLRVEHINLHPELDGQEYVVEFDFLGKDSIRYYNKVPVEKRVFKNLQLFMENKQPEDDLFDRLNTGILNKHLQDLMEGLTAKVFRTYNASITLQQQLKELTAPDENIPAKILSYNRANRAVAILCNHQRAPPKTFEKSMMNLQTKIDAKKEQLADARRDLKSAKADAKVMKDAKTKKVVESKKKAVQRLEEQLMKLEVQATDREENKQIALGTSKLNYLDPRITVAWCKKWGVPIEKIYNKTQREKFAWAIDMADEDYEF
A further data set addresses DDX5-blocked Top1 (Homo sapiens, UniProt P17844). The data set is classed as biochemical. As to conditions: 0.05 μM; DDX5 100 nM; Top1 1 IU. The protocol:
Experimental condition: Top1 was used for 1 IU; DDX5 was used in 100 nM; and 1 μg supercoiled pRB322 DNA was used.

Data set [2] has as its system HCT116. Put plainly: MTT assay HCT116. The data set is classed as cell-based, human. The protocol: (§3) MTT assays. […] Each experiment was performed at least in triplicate.
A further data set relates to UOK151. The protocol:
as §1, §2

The subject of the next data set is UOK262. As for the experimental part:
as §1, §2

For the next data set, the system named is Y79. Nature of the data set: MTT assay Y79. The format is cell-based. As to conditions: Table 7. As for the experimental part: as §3
Another data set deals with Wer 127. Nature of the data set: MTT assay Wer 127. The format is cell-based. To be noted: Table 7. As for the experimental part: as §3
Data set [3] relates to HepG2, A549, HeLa, HCT116. To be noted: four cell lines, in words.
A further data set relates to A2780CP70-GFPcODC cells. Put plainly: GFPcODC drug-resistant cell tracking, A2780CP. The format is cell-based, human. As to conditions: 10 μM, 72 h. An excerpt: (§4) Generation of A2780-GFPcODC, A2780CP-GFPcODC and PANC1GFPcODC cells and fluorescence microscopy to detect stem-like and drug resistant green cells. The retroviral expression vector pQCXIN-ZsGreen-cODC (ornithine decarboxylase), containing a green fluorescence marker, was kindly provided by Dr. Frank Pajonk (Vlashi E, et al., In vivo imaging, tracking, and targeting of cancer stem cells. J Natl Cancer Inst. 2009; 101: 350-9). The retroviral particles collected from packaging cells that transfected with the above vector were infected into A2780, A2780CP and PANC1 cells, respectively. The transfected cell pool was used for experiments. The transfected cells were treated with and without cisplatin or FL118 alone or in combination for defined times. Cell images were acquired digitally using the Olympus IX73 Inverted Score s (Olympus). Percentages of living cells were obtained from the average of the total cells counted from 10 microscopic fields.
To test this, we used a novel approach developed in Dr. Pajonk's lab for the live tracking of drug resistant cells (Vlashi E, et al., In vivo imaging, tracking, and targeting of cancer stem cells. J Natl Cancer Inst. 2009; 101: 350-9). This approach takes advantage of reduced 26S proteasome activity of drug resistant cells. […]

The subject of a further data set is PANC1-GFPcODC cells. Nature of the data set: Trypan blue exclusion, PANC1-GFPcODC cells. As to conditions: 4-day treatment. The format is cell-based, human.
From the text: as §4, with “The transfected cells were treated with and without cisplatin or FL118 alone or in combination for defined times.” left out
Next, we applied the same system to generate pancreatic cancer PANC1-GFPcODC cells.

Where [4] appears, read: Table 5 lower part, H1376 bladder cancer.
Setting [5] is: Table 5 lower part, UMUC-3 bladder cancer.

Where two headings read alike, the source gives them in different places. A value given as a limit tells only on which side of the number the result lay.

The term IC50 denotes the midpoint of a concentration-inhibition curve.

Chain of DDX5-blocked Top1 (P17844 whole entry): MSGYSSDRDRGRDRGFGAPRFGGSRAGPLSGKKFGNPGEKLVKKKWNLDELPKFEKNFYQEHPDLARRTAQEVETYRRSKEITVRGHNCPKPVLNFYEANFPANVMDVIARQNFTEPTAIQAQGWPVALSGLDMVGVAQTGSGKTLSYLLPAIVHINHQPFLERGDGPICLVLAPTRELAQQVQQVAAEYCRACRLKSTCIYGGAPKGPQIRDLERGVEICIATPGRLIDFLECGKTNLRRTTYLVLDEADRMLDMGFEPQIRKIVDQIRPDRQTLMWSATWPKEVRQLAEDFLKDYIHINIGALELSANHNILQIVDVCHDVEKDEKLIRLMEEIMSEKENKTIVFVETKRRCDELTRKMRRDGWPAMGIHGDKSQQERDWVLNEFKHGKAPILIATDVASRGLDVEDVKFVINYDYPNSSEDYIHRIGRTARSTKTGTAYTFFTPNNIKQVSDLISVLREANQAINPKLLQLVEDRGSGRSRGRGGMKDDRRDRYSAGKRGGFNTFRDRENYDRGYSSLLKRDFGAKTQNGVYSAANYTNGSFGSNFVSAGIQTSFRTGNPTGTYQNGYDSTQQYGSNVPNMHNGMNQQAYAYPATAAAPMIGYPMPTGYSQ

Take `CC[C@@]1(O)C(=O)OCc2c1cc1n(c2=O)Cc2c-1nc1cc3c(cc1c2-c1cc(OC)cc(OC)c1)OCO3` [7Q 24]: the IC50/EC50 in the data set on T24 turned out to be 0.08 nM; in the data set on RT4, 1.44 nM; in the data set with H1376 (setting [4]), 246 nM; with UMUC-3 (setting [5]) it was 0.21 nM; in the data set with FaDu, 0.68 nM; with A2008, 1.95 nM. The IC50/EC50 with HT-3 (Table 5 lower part) was determined as 3.59 nM. The “antitumor activity, 7Q-series (1)” value in the data set with PDX14244 and PDX27454 is reported as “much higher antitumor activity than the other compounds in this 7Q-series (1)”.

As to `CC[C@@]1(O)C(=O)OCc2c1cc1n(c2=O)Cc2c-1nc1cc3c(cc1c2-c1ccc(F)c(OC)c1)OCO3` [Compound 7h], in the data set with HCT116 cells, the ROS production entry is given as “significantly increased”.

In the case of `CCc1c2c(nc3ccc(O)cc13)-c1cc3c(c(=O)n1C2)COC(=O)[C@]3(O)CC` [SN38, reference compound], the IC50 in the data set with HepG2 (Table 13, MTT, HepG2 liver cancer) worked out at 268.4 ± 0.6 nM; in the data set on A549 (Table 13, MTT, A549 lung cancer) it was 475 ± 9 nM; in the data set on HeLa (Table 13, MTT, HeLa cervical cancer), 234 ± 5.2 nM; in the data set with HCT116 [1] (Table 13, MTT, HCT116 colorectal cancer), 366.9 ± 3.3 nM. Further, on Top1, the “concentrations blocking Top1 nicking SC DNA activity” value is “could only be blocked by 5 and 50 μM”. The “unblocking of DDX5-blocked Top1 activity” value on DDX5-blocked Top1 was “cannot”. Moreover, the IC50/EC50 in the data set on HCT116 [2] (Table 7) is 619.8 nM; in the data set with HCT116 [2] (Table 8) it was 619.8 nM; in the data set with T24, 2.32 nM; in the data set on RT4, 17.6 nM; in the data set on H1376 (setting [4]), over 500 nM; with H1376 (Table 8, H1376) it was over 500 nM. Also, the IC50/EC50 is given as 8.2 nM in the data set on UMUC-3 (setting [5]); 8.2 nM with UMUC-3 (Table 8, UMUC-3); over 500 nM in the data set with UOK151 (Table 5 lower part, UOK151 kidney cancer); over 500 nM in the data set with UOK151 (Table 8, UOK151); over 500 nM in the data set on UOK151 (Table 10, UOK151); 33.8 nM in the data set on UOK262 (Table 5 lower part, UOK262 kidney cancer). In addition, the IC50/EC50 is recorded as 33.8 nM with UOK262 (Table 8, UOK262); 33.8 nM with UOK262 (Table 10, UOK262); 18 nM with HT-3 (Table 7); 5.25 nM in the data set on Y79; 6.85 nM in the data set with Wer 127.

Consider `CCc1ccc(-c2c3c(nc4cc5c(cc24)OCO5)-c2cc4c(c(=O)n2C3)COC(=O)[C@]4(O)CC)cc1` [7Q 6], for which the IC50/EC50 in the data set on T24 was 0.19 nM; with RT4, 1.51 nM; in the data set on H1376 (setting [4]) it was 386 nM; in the data set with UMUC-3 (setting [5]), 0.4 nM; in the data set with FaDu, 0.85 nM; in the data set with A2008 it was 1.34 nM. The IC50/EC50 in the data set with HT-3 (Table 5 lower part) came out at 3.11 nM. Moreover, in the data set with PDX14244 and PDX27454, the “antitumor activity, 7Q-series (1)” value is listed as “much higher antitumor activity than the other compounds in this 7Q-series (1)”.

`CC[C@@]1(O)C(=O)OCc2c1cc1n(c2=O)Cc2c-1nc1cc3c(cc1c2-c1ccc(F)cc1)OCO3` [Compound 7b]: the IC50 in the data set on HepG2 turned out to be 46.3 ± 5.4 nM; in the data set with A549 it was 19.8 ± 2.9 nM; with HeLa it was 11.1 ± 6.7 nM; in the data set with HCT116 [1], 32.7 ± 3.3 nM. The “cytotoxic / anti-proliferation ability” value in data set [3] is given as “good anti-proliferation ability in all four cell lines”.

Regarding `N.N.[Cl][Pt][Cl]` [cisplatin], the “total cell population killed” value in the data set with A2780CP70-GFPcODC cells is 90%. In addition, the “GFP-negative (drug sensitive) PANC1 cells killed” value in the data set with PANC1-GFPcODC cells (50 μM) was 92%. In addition, the cell death in the data set on PANC1-GFPcODC cells (20 μM cisplatin, 10 nM FL118, or both) is about 18%.
